Data: article PMC4519859, “Synthesis and Biological Evaluation of Novel Dehydroabietic Acid Derivatives Conjugated with Acyl-Thiourea Peptide Moiety as Antitumor Agents” (International Journal of Molecular Sciences, 2015)

Legend:
Assay type in all cases: cell-based
SK-OV-3 = experiment: MTT cytotoxicity assay, SK-OV-3; details: Homo sapiens, 48 h, mean ± SD, three independent experiments
Experimental: (§1) The in vitro cytotoxic potency of DHAA acyl-thiourea derivatives 8a–8o and 9a–9o were evaluated by 3-(4,5-dimethylthiazol-2-yl)-2,5-diphenyltetrazolium bromide (MTT) assay against HeLa, SK-OV-3 and MGC-803 tumor cell lines, with 5-FU as the positive control.
(§2) General procedure for cytotoxic evaluation in vitro: HeLa, HepG2, SK-OV-3 and MGC-803 cells were seeded into 96-well microculture plates and allowed to adhere for 24 h, respectively. After cells were exposed to compounds at concentrations from 100 to 0.01 μM for 48 h, medium was aspirated and replenished with complete medium. IC50 was evaluated by MTT tetrazolium dye assay. Each experiment was performed three times; Statistical analysis: All statistical analysis was performed with SPSS Version 10 (SPSS, Chicago, IL, USA). Data was analyzed by one-way ANOVA. Mean separations were performed using the least significant difference method. Each experiment was replicated thrice, and all experiments yielded similar results. Measurements from all the replicates were combined, and treatment effects were analyzed.

HeLa = experiment: MTT cytotoxicity assay, HeLa; details: Homo sapiens, 48 h, mean ± SD, three independent experiments
Experimental: as §1, §2

MGC-803 = experiment: MTT cytotoxicity assay, MGC-803; details: Homo sapiens, 48 h, mean ± SD, three independent experiments
Experimental: as §1, §2

HL-7702 = experiment: MTT cytotoxicity assay, HL-7702 normal cells; details: L02, 48 h, normal human cells, mean ± SD, three independent experiments
Experimental: [The source words this procedure for another cell line and reports this cell line under the same test.] as §1, §2

CC(C)c1ccc2c(c1)CCC1[C@](C)(C(=O)NC(=S)N[C@H](C)C(=O)Nc3cccc4ccccc34)CCC[C@]21C (stereo partly drawn) [Compound 8m, (1R,4aS)-7-Isopropyl-1,4a-dimethyl-N-(((R)-1-(naphthalen-1-ylamino)-1-oxopropan-2-yl)carbamothioyl)-1,2,3,4,4a,9,10,10a-octahydrophenanthrene-1-carboxamide]
IC50 (SK-OV-3): 49.4 ± 4.64 µM
IC50 (HeLa): 46.6 ± 4.77 µM
IC50 (MGC-803): 36.5 ± 3.24 µM
IC50 (HL-7702): 59.5 ± 4.65 µM

Cc1ccc(NC(=O)[C@@H](C)NC(=S)NC(=O)[C@]2(C)CCC[C@]3(C)c4ccc(C(C)C)cc4CCC23)cc1 (stereo partly drawn) [Compound 8c, (1R,4aS)-7-Isopropyl-1,4a-dimethyl-N-(((R)-1-oxo-1-(p-tolylamino)propan-2-yl)carbamothioyl)-1,2,3,4,4a,9,10,10a-octahydrophenanthrene-1-carboxamide]
IC50 (SK-OV-3): 50.9 ± 4.11 µM
IC50 (HeLa): 38.7 ± 3.65 µM
IC50 (MGC-803): 24.9 ± 1.64 µM
IC50 (HL-7702): 61.7 ± 3.41 µM

CC(C)c1ccc2c(c1)CCC1[C@](C)(C(=O)NC(=S)N[C@H](C)C(=O)Nc3ccc(F)cc3)CCC[C@]21C (stereo partly drawn) [Compound 8i, (1R,4aS)-N-(((R)-1-((4-Fluorophenyl)amino)-1-oxopropan-2-yl)carbamothioyl)-7-isopropyl-1,4a-dimethyl-1,2,3,4,4a,9,10,10a-octahydrophenanthrene-1-carboxamide]
IC50 (SK-OV-3): 32.5 ± 2.64 µM
IC50 (HeLa): 30.2 ± 2.55 µM
IC50 (MGC-803): 29.4 ± 2.77 µM
IC50 (HL-7702): 54.5 ± 2.34 µM

COc1ccc(NC(=O)[C@@H](Cc2ccccc2)NC(=S)NC(=O)[C@]2(C)CCC[C@]3(C)c4ccc(C(C)C)cc4CCC23)cc1 (stereo partly drawn) [Compound 9g, (1R,4aS)-7-Isopropyl-N-(((R)-1-((4-methoxyphenyl)amino)-1-oxo-3-phenylpropan-2-yl)carbamothioyl)-1,4a-dimethyl-1,2,3,4,4a,9,10,10a-octahydrophenanthrene-1-carboxamide]
IC50 (SK-OV-3): 20.1 ± 1.78 µM
IC50 (HeLa): 15.6 ± 1.53 µM
IC50 (MGC-803): 26.1 ± 2.63 µM
IC50 (HL-7702): 41.1 ± 1.32 µM

COc1ccccc1NC(=O)[C@@H](Cc1ccccc1)NC(=S)NC(=O)[C@]1(C)CCC[C@]2(C)c3ccc(C(C)C)cc3CCC12 (stereo partly drawn) [Compound 9f, (1R,4aS)-7-Isopropyl-N-(((R)-1-((2-methoxyphenyl)amino)-1-oxo-3-phenylpropan-2-yl)carbamothioyl)-1,4a-dimethyl-1,2,3,4,4a,9,10,10a-octahydrophenanthrene-1-carboxamide]
IC50 (SK-OV-3): 18.9 ± 1.72 µM
IC50 (HeLa): 28.1 ± 2.23 µM
IC50 (MGC-803): 20.7 ± 1.41 µM
IC50 (HL-7702): 38.4 ± 1.45 µM

CC(C)c1ccc2c(c1)CCC1[C@](C)(C(=O)NC(=S)N[C@H](Cc3ccccc3)C(=O)Nc3ccccc3Cl)CCC[C@]21C (stereo partly drawn) [Compound 9d, (1R,4aS)-N-(((R)-1-((2-Chlorophenyl)amino)-1-oxo-3-phenylpropan-2-yl)carbamothioyl)-7-isopropyl-1,4a-dimethyl-1,2,3,4,4a,9,10,10a-octahydrophenanthrene-1-carboxamide]
IC50 (SK-OV-3): 16.9 ± 1.43 µM
IC50 (HeLa): 17 ± 1.76 µM
IC50 (MGC-803): 20.4 ± 3.41 µM
IC50 (HL-7702): 36.5 ± 1.43 µM

CC(C)c1ccc2c(c1)CCC1[C@](C)(C(=O)NC(=S)N[C@H](Cc3ccccc3)C(=O)Nc3ccccc3F)CCC[C@]21C (stereo partly drawn) [Compound 9h, (1R,4aS)-N-(((R)-1-((2-Fluorophenyl)amino)-1-oxo-3-phenylpropan-2-yl)carbamothioyl)-7-isopropyl-1,4a-dimethyl-1,2,3,4,4a,9,10,10a-octahydrophenanthrene-1-carboxamide]
IC50 (SK-OV-3): 28.8 ± 2.32 µM
IC50 (HeLa): 18.8 ± 1.45 µM
IC50 (MGC-803): 24.7 ± 3.33 µM
IC50 (HL-7702): 49.4 ± 2.64 µM

CC(C)c1ccc2c(c1)CCC1[C@](C)(C(=O)NC(=S)N[C@H](C)C(=O)Nc3ccccn3)CCC[C@]21C (stereo partly drawn) [Compound 8n, (1R,4aS)-7-Isopropyl-1,4a-dimethyl-N-(((R)-1-oxo-1-(pyridin-2-ylamino)propan-2-yl)carbamothioyl)-1,2,3,4,4a,9,10,10a-octahydrophenanthrene-1-carboxamide]
IC50 (SK-OV-3): 25.2 ± 2.43 µM
IC50 (HeLa): 14.3 ± 1.33 µM
IC50 (MGC-803): 19.3 ± 1.32 µM
IC50 (HL-7702): 48.8 ± 2.44 µM

CC(C)c1ccc2c(c1)CCC1[C@](C)(C(=O)NC(=S)N[C@H](Cc3ccccc3)C(=O)Nc3ccccc3)CCC[C@]21C (stereo partly drawn) [Compound 9a, (1R,4aS)-7-Isopropyl-1,4a-dimethyl-N-(((R)-1-oxo-3-phenyl-1-(phenylamino)propan-2-yl)carbamothioyl)-1,2,3,4,4a,9,10,10a-octahydrophenanthrene-1-carboxamide]
IC50 (SK-OV-3): 17 ± 1.13 µM
IC50 (HeLa): 25.7 ± 2.23 µM
IC50 (MGC-803): 26.6 ± 3.25 µM
IC50 (HL-7702): 37.5 ± 1.44 µM

CC(C)c1ccc2c(c1)CCC1[C@](C)(C(=O)NC(=S)N[C@H](Cc3ccccc3)C(=O)Nc3ccccc3Br)CCC[C@]21C (stereo partly drawn) [Compound 9j, (1R,4aS)-N-(((R)-1-((2-Bromophenyl)amino)-1-oxo-3-phenylpropan-2-yl)carbamothioyl)-7-isopropyl-1,4a-dimethyl-1,2,3,4,4a,9,10,10a-octahydrophenanthrene-1-carboxamide]
IC50 (SK-OV-3): 40.3 ± 3.41 µM
IC50 (HeLa): 12.7 ± 1.03 µM
IC50 (MGC-803): 21.3 ± 1.27 µM
IC50 (HL-7702): 60.5 ± 3.43 µM

Cc1cc(C)cc(NC(=O)[C@@H](C)NC(=S)NC(=O)[C@]2(C)CCC[C@]3(C)c4ccc(C(C)C)cc4CCC23)c1 (stereo partly drawn) [Compound 8l, (1R,4aS)-N-(((R)-1-((3,5-Dimethylphenyl)amino)-1-oxopropan-2-yl)carbamothioyl)-7-isopropyl-1,4a-dimethyl-1,2,3,4,4a,9,10,10a-octahydrophenanthrene-1-carboxamide]
IC50 (SK-OV-3): 33 ± 2.59 µM
IC50 (HeLa): 18.6 ± 1.24 µM
IC50 (MGC-803): 13.9 ± 1.32 µM
IC50 (HL-7702): 55.3 ± 2.65 µM

CC(C)c1ccc2c(c1)CCC1[C@](C)(C(=O)NC(=S)N[C@H](Cc3ccccc3)C(=O)Nc3cccc4ccccc34)CCC[C@]21C (stereo partly drawn) [Compound 9m, (1R,4aS)-7-Isopropyl-1,4a-dimethyl-N-(((R)-1-(naphthalen-1-ylamino)-1-oxo-3-phenylpropan-2-yl)carbamothioyl)-1,2,3,4,4a,9,10,10a-octahydrophenanthrene-1-carboxamide]
IC50 (SK-OV-3): 15.3 ± 1.73 µM
IC50 (HeLa): 12.8 ± 1.2 µM
IC50 (MGC-803): 22.9 ± 1.66 µM
IC50 (HL-7702): 35.6 ± 1.53 µM

CC(C)c1ccc2c(c1)CCC1[C@](C)(C(=O)NC(=S)N[C@H](C)C(=O)Nc3ccccc3Br)CCC[C@]21C (stereo partly drawn) [Compound 8j, (1R,4aS)-N-(((R)-1-((2-Bromophenyl)amino)-1-oxopropan-2-yl)carbamothioyl)-7-isopropyl-1,4a-dimethyl-1,2,3,4,4a,9,10,10a-octahydrophenanthrene-1-carboxamide]
IC50 (SK-OV-3): 39.1 ± 3.56 µM
IC50 (HeLa): 22.8 ± 1.55 µM
IC50 (MGC-803): 27.9 ± 3.26 µM
IC50 (HL-7702): 59.6 ± 3.54 µM

CC(C)c1ccc2c(c1)CCC1[C@](C)(C(=O)NC(=S)N[C@H](C)C(=O)Nc3ccc(Cl)cc3)CCC[C@]21C (stereo partly drawn) [Compound 8e, (1R,4aS)-N-(((R)-1-((4-Chlorophenyl)amino)-1-oxopropan-2-yl)carbamothioyl)-7-isopropyl-1,4a-dimethyl-1,2,3,4,4a,9,10,10a-octahydrophenanthrene-1-carboxamide]
IC50 (SK-OV-3): 36.1 ± 3.28 µM
IC50 (HeLa): 36.1 ± 3.31 µM
IC50 (MGC-803): 21.7 ± 1.69 µM
IC50 (HL-7702): 57.7 ± 3.66 µM

O=c1[nH]cc(F)c(=O)[nH]1 [Compound 5-FU, 5-fluorouracil, reference compound]
IC50 (SK-OV-3): 30.2 ± 1.13 µM
IC50 (HeLa): 36.6 ± 1.55 µM
IC50 (MGC-803): 34.9 ± 1.75 µM

CC(C)c1ccc2c(c1)CC[C@H]1[C@](C)(C(=O)O)CCC[C@]21C [DHA, dehydroabietic acid]
IC50 (SK-OV-3): 87.5 ± 4.12 µM
IC50 (HeLa): 30.4 ± 3.45 µM
IC50 (MGC-803): > 100 µM
